# Experiments:
# [1] = tested on: RAD51 NPFs; assay: cryo-electron micrographs, bundling of RAD51 NPFs on uncapped DNA; set-up: species or system human; conditions: 1:0.5 molar ratio of TR2 peptide; uncapped ss- and dsDNA; two independent repeats
# From the text: (§1) To understand the structural basis for the association of the BRCA2 C-terminus with the RAD51 nucleoprotein filament, we sought to determine the structure of a RAD51-DNA-TR2 filament by high-resolution cryo-electron microscopy (cryoEM). […] Individual filaments within a bundle appeared to be in translational register relative to each other as it was possible to obtain well-resolved 2D classes of filament pairs (Supplementary fig. 5A, Supplementary Table 1). Filament aggregation induced by TR2 complicated picking of individual filament particles and prevented structural determination by cryoEM. We therefore sought to develop a method to prepare RAD51 NPFs in the presence of TR2 peptide without causing filament bundling. We reasoned that bundling might be alleviated by capping the DNA substrate with a bulky tag, to prevent filament aggregation by steric interference. We therefore prepared ss- and dsDNA substrates with a biotin tag at either one end or both ends, that could be bound by monomeric streptavidin (mSA) (Supplementary Fig. 5B, Supplementary Table 1).
# (§2) Fig. 2 BRCA2 TR2 induces bundling of RAD51 nucleoprotein filaments. A Cryo-electron micrographs of RAD51 NPFs formed on ssDNA and dsDNA in the presence of 1:0.5 molar ratio of TR2 peptide. Extensive NPF aggregation into bundles of aligned filaments is clearly visible (examples marked with dashed white boxes). Two independent repeats. […]
# [2] = tested on: RAD51 NPFs on mSA-capped DNA; assay: cryo-electron micrographs, bundling of RAD51 NPFs on mSA-capped DNA; set-up: species or system human; conditions: 1:0.5 molar ratio of TR2 peptide and mSA; ss- and dsDNA; two independent repeats
# From the text: as §1, §2
# [3] = tested on: RAD51 nucleoprotein filaments; conditions: cited from earlier work
sequence,measurement,setting,value
"DDQKNCKKRRALDFLSRLPLPPPVSPICTFVSPAAQKAFQPPRSCGTKY [TR2, BRCA2 TR2 peptide spanning amino acids 3260 to 3308]",bundling of RAD51 NPFs,[1],extensive bundling of RAD51 NPFs with both ss- and dsDNA
same,bundling of RAD51 NPFs on mSA-capped DNA,[2],no bundling in the presence of TR2
same,effect of TR2 binding on RAD51 NPFs,[3],stabilisation of RAD51 NPFs and formation of filament aggregates
same,protection of RAD51 NPFs from disassembly by BRC repeat 4,[3],protection of RAD51 nucleoprotein filaments from disassembly by BRC repeat 4 of BRCA2

# Reference: article PMC10622577, “Structural basis for stabilisation of the RAD51 nucleoprotein filament by BRCA2” (Nature Communications, 2023)
